From PubChem BioAssay AID248 (DTP/NCI, 2004)
“And” between values parts separate entries of the source, which are not always exact repeats. Equal entries are not always repeated. Toxic doses and inconclusive results are not listed. Rule as the data show it: active = T/C of 150% or more; inactive = T/C below 125%.

Test system: L1210 leukemia ip in BDF1 mice, survival T/C
Experiment: NCI In Vivo Anticancer Drug Screen. Data for tumor model L1210 Leukemia (intraperitoneal) in B6D2F1 (BDF1) mice
Conditions: endpoint: mean survival time, higher = longer survival
In short: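 Mice bearing the transplanted tumor received compound or vehicle. Survival of the treated group was divided by that of the vehicle-treated control group to give the ratio.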

[1] = dose: 100.0 mg/kg/injection, schedule: Q01DX001 (ip), vehicle: saline
[2] = dose: 200.0 mg/kg/injection, schedule: Q01DX001 (ip), vehicle: saline
[3] = dose: 100.0 mg/kg/injection, schedule: Q01DX009 (ip), vehicle: saline with Tween-80
[4] = dose: 100.0 mg/kg/injection, schedule: Q04DX003 (ip), vehicle: saline with Tween-80
[5] = dose: 200.0 mg/kg/injection, schedule: Q01DX009 (ip), vehicle: saline with Tween-80
[6] = dose: 200.0 mg/kg/injection, schedule: Q04DX003 (ip), vehicle: saline with Tween-80
[7] = dose: 400.0 mg/kg/injection, schedule: Q04DX003 (ip), vehicle: saline with Tween-80
[8] = dose: 100.0 mg/kg/injection, schedule: Q04DX002 (ip), vehicle: Klucel (hydroxypropylcellulose) (HPC)
[9] = dose: 200.0 mg/kg/injection, schedule: Q04DX002 (ip), vehicle: Klucel (hydroxypropylcellulose) (HPC)
[10] = dose: 400.0 mg/kg/injection, schedule: Q04DX002 (ip), vehicle: Klucel (hydroxypropylcellulose) (HPC)
[11] = dose: 400.0 mg/kg/injection, schedule: Q01DX001 (ip), vehicle: saline

Measured: T/C

CN(C)c1nc(N)c(C#N)c(C#N)c1C#N
inactive: dose: 50.0 mg/kg/injection, schedule: Q01DX001 (ip), vehicle: saline 96 % of control | [1] 96 % of control | [2] 100 % of control

Cc1ccc(S(=O)(=O)OC2CC3CCC2C3)cc1 (stereo not drawn)
inactive: dose: 100.0 mg/kg/injection, schedule: Q01DX009 (ip), vehicle: other 107 % of control | dose: 200.0 mg/kg/injection, schedule: Q01DX009 (ip), vehicle: other 100 % of control | dose: 400.0 mg/kg/injection, schedule: Q01DX009 (ip), vehicle: other 102 % of control

Cc1cnc(SCc2ccccc2Cl)[nH]c1=O
inactive: dose: 25.0 mg/kg/injection, schedule: Q01DX Z (ip), vehicle: methylcellulose (MC) 90 % of control | dose: 50.0 mg/kg/injection, schedule: Q01DX Z (ip), vehicle: methylcellulose (MC) 100 % of control

S=C(S)N1CCC(CCCC2CCN(C(=S)S)CC2)CC1
inactive: [3] 88 % of control | [4] 100 % of control | [5] 88 % of control | [6] 89 % of control | [7] 105 % of control

Cc1onc(-c2ccccc2Cl)c1-c1nc2ccccc2c(=O)o1
inactive: [8] 93 % of control | [9] 93 % of control | [10] 96 % of control

O=C(NCc1cnccn1)c1ccc([N+](=O)[O-])cc1
inactive: [3] 98 % of control | [5] 104 % of control | dose: 400.0 mg/kg/injection, schedule: Q01DX009 (ip), vehicle: saline with Tween-80 98 % of control

C(#CCOc1ccccc1)COc1ccccc1
inactive: [4] 97 % of control | [6] 97 % of control | [7] 97 % of control

COC(=O)c1ccccc1NC(=O)Nc1cccc(OC)c1
inactive: [8] 108 % of control | [9] 97 % of control | [10] 105 % of control

c1ccc2c(c1)OC1OC2Oc2ccccc21
inactive: [1] 97 % of control | dose: 177.0 mg/kg/injection, schedule: Q01DX001 (ip), vehicle: saline 104 % of control and 92 % of control | [2] 101 % of control | dose: 266.0 mg/kg/injection, schedule: Q01DX001 (ip), vehicle: saline 93 % of control and 94 % of control | [11] 88 % of control and 90 % of control | dose: 600.0 mg/kg/injection, schedule: Q01DX001 (ip), vehicle: saline 86 % of control and 92 % of control

COc1cc(C(=O)NNS(=O)(=O)c2ccccc2)cc(OCc2ccccc2)c1OC
inactive: dose: 100.0 mg/kg/injection, schedule: Q04DX002 (ip), vehicle: saline 97 % of control | dose: 200.0 mg/kg/injection, schedule: Q04DX002 (ip), vehicle: saline 97 % of control | dose: 400.0 mg/kg/injection, schedule: Q04DX002 (ip), vehicle: saline 95 % of control

CC(=O)C1CCC2(C)CCC(=O)C(C)C2C1 (stereo not drawn)
inactive: dose: 50.0 mg/kg/injection, schedule: Q04DX003 (ip), vehicle: Klucel (hydroxypropylcellulose) (HPC) 107 % of control | dose: 100.0 mg/kg/injection, schedule: Q01DX001 (ip), vehicle: Klucel (hydroxypropylcellulose) (HPC) 104 % of control | dose: 100.0 mg/kg/injection, schedule: Q01DX009 (ip), vehicle: Klucel (hydroxypropylcellulose) (HPC) 100 % of control | dose: 100.0 mg/kg/injection, schedule: Q04DX003 (ip), vehicle: Klucel (hydroxypropylcellulose) (HPC) 104 % of control | dose: 200.0 mg/kg/injection, schedule: Q01DX001 (ip), vehicle: Klucel (hydroxypropylcellulose) (HPC) 106 % of control | dose: 200.0 mg/kg/injection, schedule: Q01DX009 (ip), vehicle: Klucel (hydroxypropylcellulose) (HPC) 100 % of control | dose: 200.0 mg/kg/injection, schedule: Q04DX003 (ip), vehicle: Klucel (hydroxypropylcellulose) (HPC) 101 % of control | dose: 400.0 mg/kg/injection, schedule: Q01DX001 (ip), vehicle: Klucel (hydroxypropylcellulose) (HPC) 101 % of control | dose: 400.0 mg/kg/injection, schedule: Q01DX009 (ip), vehicle: Klucel (hydroxypropylcellulose) (HPC) 98 % of control | dose: 400.0 mg/kg/injection, schedule: Q04DX003 (ip), vehicle: Klucel (hydroxypropylcellulose) (HPC) 101 % of control

ClC1=C(Cl)C(Cl)(Cl)C2C1C1C(Cl)=C(Cl)C(Cl)(Cl)C1C1C2C(Cl)=C(Cl)C1(Cl)Cl (stereo not drawn)
inactive: dose: 100.0 mg/kg/injection, schedule: Q01DX001 (ip), vehicle: gum acacia 95 % of control | dose: 100.0 mg/kg/injection, schedule: Q01DX009 (ip), vehicle: gum acacia 92 % of control | dose: 200.0 mg/kg/injection, schedule: Q01DX001 (ip), vehicle: gum acacia 88 % of control | dose: 200.0 mg/kg/injection, schedule: Q01DX009 (ip), vehicle: gum acacia 94 % of control | dose: 400.0 mg/kg/injection, schedule: Q01DX001 (ip), vehicle: gum acacia 92 % of control | dose: 400.0 mg/kg/injection, schedule: Q01DX009 (ip), vehicle: gum acacia 93 % of control

CCCNC(=O)Nc1ccc(Cl)c(Cl)c1
inactive: [1] 100 % of control | [2] 93 % of control | [11] 92 % of control

CN(C)c1ccc(SSc2ccc(N(C)C)cc2)cc1
inactive: [1] 104 % of control | [8] 98 % of control | [2] 93 % of control | [9] 102 % of control | [11] 98 % of control | [10] 91 % of control

Cc1ccc2nc3c(nc2c1)-c1cccc2cccc-3c12
inactive: dose: 25.0 mg/kg/injection, schedule: Q01DX009 (ip), vehicle: saline with Tween-80 94 % of control | dose: 50.0 mg/kg/injection, schedule: Q01DX009 (ip), vehicle: saline with Tween-80 90 % of control | [4] 102 % of control | [6] 93 % of control

FC(F)(F)c1cccc(N2CCNCC2)c1
inactive: dose: 75.0 mg/kg/injection, schedule: Q01DX001 (ip), vehicle: acid diluted with saline 90 % of control

N#CC(C#N)c1c(F)c(F)c(C(F)(F)F)c(F)c1F
inactive: dose: 10.0 mg/kg/injection, schedule: Q04DX003 (ip), vehicle: Klucel (hydroxypropylcellulose) (HPC) 103 % of control | dose: 20.0 mg/kg/injection, schedule: Q01DX001 (ip), vehicle: Klucel (hydroxypropylcellulose) (HPC) 97 % of control | dose: 20.0 mg/kg/injection, schedule: Q04DX003 (ip), vehicle: Klucel (hydroxypropylcellulose) (HPC) 98 % of control | dose: 40.0 mg/kg/injection, schedule: Q01DX001 (ip), vehicle: Klucel (hydroxypropylcellulose) (HPC) 101 % of control | dose: 40.0 mg/kg/injection, schedule: Q04DX003 (ip), vehicle: Klucel (hydroxypropylcellulose) (HPC) 95 % of control

C=CCSCCC
inactive: dose: 100.0 mg/kg/injection, schedule: Q01DX009 (ip), vehicle: saline 90 % of control | dose: 100.0 mg/kg/injection, schedule: Q04DX003 (ip), vehicle: saline 96 % of control | dose: 200.0 mg/kg/injection, schedule: Q01DX009 (ip), vehicle: saline 90 % of control | dose: 200.0 mg/kg/injection, schedule: Q04DX003 (ip), vehicle: saline 104 % of control | dose: 400.0 mg/kg/injection, schedule: Q01DX009 (ip), vehicle: saline 90 % of control | dose: 400.0 mg/kg/injection, schedule: Q04DX003 (ip), vehicle: saline 91 % of control

CC(C)NC=O
inactive: [1] 96 % of control | [2] 102 % of control | [11] 104 % of control

c1ccc([Si](C[CH2][Sn]([c]2ccccc2)([c]2ccccc2)[c]2ccccc2)(c2ccccc2)c2ccc([Si](C[CH2][Sn]([c]3ccccc3)([c]3ccccc3)[c]3ccccc3)(c3ccccc3)c3ccccc3)cc2)cc1
inactive: [4] 100 % of control | [6] 96 % of control | [7] 96 % of control

CC(=O)N(CCN(C)C)Cc1ccccc1
inactive: [1] 98 % of control | [2] 98 % of control
